Assay [1] relates to stationary phase cells of MRSA. The assay is described as follows: Antibacterial activity against stationary phase bacteria. It is filed as cell-based, S. aureus. The following applies: for time to complete eradication: stationary phase MRSA. How it is done:
The stationary phase cells and persister cells are metabolically repressed and phenotypically different from the log-phase cells.[27] For activity, the commonly used drugs, vancomycin, and linezolid require actively ongoing cellular processes. They are therefore ineffective against non-dividing bacteria. […] The integrity of the bacterial membrane is imperative to survival irrespective of metabolic state. […] It completely eradicated cells in 24 h at 10 μM and within 6 h at 20 μM. […]
Antibacterial activity against stationary phase bacteria
MRSA ATCC 33591 was grown to mid-log phase at 37 °C. The bacterial suspension was diluted 1000-fold in nutrient media and allowed to reach stationary phase in 16 h. The bacterial suspension was diluted and spot-plated to determine the bacterial count. The 16 h growth culture was diluted to ~10^6 CFU/mL in PBS. 150 μL of this bacterial suspension was then incubated with 50 μL of test compounds in a 96 well-plate. The compound and bacteria were then incubated at 37 °C for 2h. The suspension was serially diluted 10 fold and spot-plated on […]. The viable bacteria were then counted after 48 h incubation at 37 °C. The results represented are the average of two independent experiments carried in duplicates. […]

For assay [2], the system named is MRSA. The assay can be described thus: Cytoplasmic membrane depolarization assay, DiSC3(5). It is filed as cell-based, S. aureus. The following applies: for time to membrane depolarisation post-treatment: exponentially growing MRSA, 10 μM; for time to dissipation of membrane potential post-treatment: stationary phase cells of MRSA, 20 μM. An excerpt:
The membrane disruption properties of both VanQbiph (4) and VanQAmC10 (8) were studied to correlate the extent of membrane perturbation and bactericidal activity against both exponentially growing and non-growing bacterial cells. Their ability to depolarize the membrane was monitored using the fluorescent probe DiSC3(5) (3,3′-dipropylthiadicarbocyanine iodide). DiSC3(5) is sensitive to the membrane potential and as it accumulates in the membrane, the fluorescence intensity decreases due to self-quenching. Upon dissipation of membrane potential, an increase in fluorescence is observed due to DiSC3(5) being dispersed in the solution. Against B. subtilis and MRSA, both the compounds VanQbiph (4) and VanQAmC10 (8) depolarised the membrane within 2 minutes post-treatment at 10 μM (Fig. 2A and B). The depolarization occurred in a concentration-dependent manner (Fig. S2A ^†). […] Against stationary phase cells of MRSA also, rapid dissipation of membrane potential was observed within 2 minutes post-treatment with both VanQbiph (4) and VanQAmC10 (8) (Fig. 2C). […]
For assessing depolarisation against stationary phase cells of MRSA ATCC 33591, cells were grown to the stationary phase for 16 h. The culture was then diluted to an OD600 of 0.2 and the depolarisation assays was performed as described. The experiments were performed three times independently in duplicates and the graph is representative of the results from all experiments.
Cytoplasmic membrane depolarization assay5
Mid log phase MRSA were harvested (3500 rpm, 5 min), washed in 5 mM glucose and 5 mM HEPES buffer (pH 7.2) in 1:1 ratio and resuspended in 5 mM HEPES buffer, 5 mM glucose and 100 mM KCl solution in 1:1:1 ratio. Then 2 μM of 3, 3′-Dipropylthiadicarbocyanine iodide (DiSC3(5)) was added to bacterial suspension and pre-incubated for 45 min. The fluorescence was monitored at excitation wavelength of 622 nm and emission wavelength of 670 nm. Then 20 μL of test compound and vancomycin were added to black well plates containing bacterial suspension and DiSC3(5) after 2-4 min of fluorescence measurement. As a measure of membrane depolarization fluorescence was monitor for another 35 min. For assessing membrane […] against stationary phase cells of MRSA ATCC 33591, cells were grown to the stationary phase for 16 h. The culture was then diluted to an OD600 of 0.2 and the depolarisation assays was performed as described. The images are representative of results from three independent experiments done in triplicates […]
Glass cover slips 24 h post -treatment with the test compounds at the mentioned con centrations, […]

Assay [3] relates to planktonic cells. The assay can be described thus: Viability of planktonic cells post-treatment in HEPES-glucose. It is filed as cell-based. How it is done: To confirm that membrane perturbation contributed to cell death, the bacterial viability was evaluated under conditions similar to the mechanistic studies. […] The number of viable cells was lower upon treatment with VanQAmC10 (8) than when treated with VanQbiph (4) at the same concentration. […] The stronger membrane–perturbation properties of VanQAmC10 (8) therefore contribute to higher activity against both exponentially growing and stationary phase bacteria.

In assay [4] the test system is B. subtilis 168. The assay can be described thus: Determination of MIC against B. subtilis. It is filed as cell-based. The following applies: read-out: MIC against B. subtilis. How it is done:
Determination of MIC against B. subtilis
Overnight cultures of B. subtilis 168 were grown in 50 mL flasks in 5 mL BMM media. The bacteria in the mid-log phase were then incubated with compounds for 18 h at 37 ̊C in BMM media. The MIC was determined as the lowest concentration at which no visible bacterial OD […]
(§1) Overnight bacterial cultures were inoculated in BMM and allowed to grow to an OD 500 of 0.35. 200 µL of the bacterial culture were incubated with compounds at 37 ̊C for 15 minutes. […]
(§2) BAC Light assay or pore formation assay
(§3) 0.35. 500 µL of the bacteria was then incubated with the compounds at their respective PECSs for 10 mins in the same media at 37 ̊C. The compound was then centrifuged at 13200 rpm and […]

The test system of assay [5] is B. subtilis 168. The assay is described as follows: Acute growth retardation / physiologically effective concentration. The following applies: exponentially growing B. subtilis. It is filed as cell-based.
From the text: The mechanisms of action in Gram-positive bacteria were further examined in the model bacterium B. subtilis. The study of the mechanism of action of a drug requires live cells under antibiotic stress. A 30–50% growth inhibition upon treatment, triggers a stress response in the bacterial cell while allowing cell proliferation to progress at a level sufficient to study the effect of the compound. The lowest concentration at which this effect was observed, was termed the physiologically effective concentration (PEC). […] The acute effect of different antibiotic concentrations on exponentially growing bacterial cultures were tested to identify the PEC (Fig. 3B–D). […] The presence of cationic lipophilic moieties possibly result in higher accumulation in the membrane region leading to growth inhibition at lower concentrations. […]
Determination of Physiologically Effective Concentration7
Overnight cultures of B. subtilis 168 were grown in 50 mL flasks with 10 mL of media. Upon growing to mid-log phase (an OD500 between 0.5 and 1), bacteria was inoculated in 100mL BMM in a 500 ml flask. When the cultures reach an OD500 of 0.35, the bacteria is aliquoted into separate conicals (50 mL) with 5 ml and compounds are added. The O.D. of the solutions are recorded every 30 minutes. The concentration which retards the growth of bacteria was selected as the PEC. The experiments were performed two times independently and the images are representative of results from two independent experiments. The experiment was done together with the compound published in (J. Med. Chem. 64, 2021, 10185) and therefore the graph for vancomycin is the same. […]
as §1, §2, §3

Values after ≈ are worked out from the molar mass of the structure shown. Read-outs that look alike come from different tables or passages of the source. Some results are limits rather than exact numbers.

Take `CN[C@H](CC(C)C)C(=O)N[C@H]1C(=O)N[C@@H](CC(N)=O)C(=O)N[C@H]2C(=O)N[C@H]3C(=O)N[C@H](C(=O)N[C@H](C(=O)O)c4cc(O)cc(O)c4-c4cc3ccc4O)[C@H](O)c3ccc(c(Cl)c3)Oc3cc2cc(c3O[C@@H]2O[C@H](CO)[C@@H](O)[C@H](O)[C@H]2O[C@H]2C[C@](C)(N)[C@H](O)[C@H](C)O2)Oc2ccc(cc2Cl)[C@H]1O` [Vancomycin, reference compound]: in assay [1] (40 μM, 24 h), the “effect on viable stationary phase cells” value is on record as “did not reduce the number of viable stationary phase cells”. In addition, the “effect on membrane potential” value in assay [2] is on record as “did not affect the membrane potential”. Besides, the “effect on viable cells” value in assay [3] (40 μM) is listed as “did not reduce the viability of bacteria”. The minimal inhibitory concentration (MIC) in assay [4] (Bacillus subtilis, 168, 18 h) is 0.2 µM (≈ 0.29 µg/mL). The “concentration showing growth retardation (inhibitory effect from)” value in assay [5] stood at 0.4 µM.
With `CNC(CC(C)C)C(=O)NC1C(=O)NC(CC(N)=O)C(=O)NC2C(=O)NC3C(=O)NC(C(=O)NC(C(=O)NCCC[N+](C)(C)Cc4ccc(-c5ccccc5)cc4)c4cc(O)cc(O)c4-c4cc3ccc4O)C(O)c3ccc(c(Cl)c3)Oc3cc2cc(c3OC2OC(CO)C(O)C(O)C2OC2CC(C)(N)C(O)C(C)O2)Oc2ccc(cc2Cl)C1O` (centres unmarked) [VanQbiph (4)], the “time to complete eradication” value in assay [1] (20 μM) is 24 h. Besides, in assay [2], the “time to membrane depolarisation post-treatment” value was at most 2 min and the “time to dissipation of membrane potential post-treatment” value is at most 2 min. Besides, in assay [3] (5 μM), the “reduction in viable cells” value is 0.8 log CFU mL^−1. The “reduction in viable cells” value in assay [3] (10 μM) is listed as 2.2 log CFU mL^−1. Besides, in assay [4] (Bacillus subtilis, 168, BMM media, 18 h), the minimal inhibitory concentration (MIC) worked out at 0.15 µM. In assay [5], the “concentration showing growth retardation (inhibitory effect from)” value turned out to be 0.2 µM.
With `CCCCCCCCCCNC(=O)C[N+](C)(C)CCCNC(=O)C1NC(=O)C2NC(=O)C(NC(=O)C3NC(=O)C(CC(N)=O)NC(=O)C(NC(=O)C(CC(C)C)NC)C(O)c4ccc(c(Cl)c4)Oc4cc3cc(c4OC3OC(CO)C(O)C(O)C3OC3CC(C)(N)C(O)C(C)O3)Oc3ccc(cc3Cl)C2O)c2ccc(O)c(c2)-c2c(O)cc(O)cc21` (centres unmarked) [VanQAmC10 (8)], the “time to complete eradication” value is listed as 24 h in assay [1] (10 μM) and “up to 6 h” in assay [1] (20 μM). Moreover, the “time to membrane depolarisation post-treatment” value in assay [2] is at most 2 min. The “time to dissipation of membrane potential post-treatment” value in assay [2] was at most 2 min. Further, the entries for the “reduction in viable cells” value in assay [3] (5 μM) and in assay [3] (10 μM) were 2 log CFU mL^−1 and 4 log CFU mL^−1, respectively. Besides, in assay [4] (Bacillus subtilis, 168, 18 h), the MIC worked out at 0.25 µM. Further, the “concentration showing growth retardation (inhibitory effect from)” value in assay [5] turned out to be 0.125 µM.
